These results are taken from patent publication EP0156785A1, “2-(Aminoalkyl)-acrylophenones, their preparation and their use” (S.A.R.L. GALEPHAR, priority 1984, dated 1985).

For one data set, the system named is rat. Kind of data set: Triton WR 1339-induced hyperlipidaemia in the rat (plasma triglycerides and cholesterol). The format is in vivo. To be noted: Triton WR 1339 175 mg/kg (IV), plasma 24 h after Triton. Here is the method:
Cette propriété a été mise en évidence chez le rat au moyen de la méthode utilisant le Triton WR 1339 comme inducteur d'hyperlipémie.
Quatre heures après l'injection I.V. aux rats de 175 mg de Triton WR 1339 par kg de poids corporel, on leur injecte par voie intrapéritonéale soit du sérum physiologique (témoins) soit la substance à étudier. Les rats sont sacrifiés 24 heures après l'injection du Triton WR 1339 et les plasmas recueillis pour les dosages (résultats : Tableau I) des triglycérides et du cholestérol.

For the next data set, the system named is plaquettes. Kind of data set: Platelet anti-aggregation activity, aggregation induced by adenosine triphosphate. Format: cell-based. To be noted: dose reducing platelet aggregation by 50%; inducer adénosine triphosphate; read-out: D.E.50 (the source's name). An excerpt:
Les propriétés antiagrégantes plaquettaires des acrylophénones de la présente invention ont été mises en évidence au moyen d'adénosine triphosphate choisi comme agent inducteur de l'agrégation plaquettaire.
Les doses efficaces réduisant de 50% l'agrégation des plaquettes (D.E.50) ont été déterminées (Tableau II). Ces résultats montrent que les substances agissent à des doses de l'ordre micromolaire.

Data set [1] can be described thus: Qualitative solubility of the isolated product. Format: physicochemical. The method, then: 3 g (0,1 M) de trioxyméthylène et 8,65 g (0,05 M) de dichlorhydrate de N-méthylpipérazine sont ajoutés à 6 g d'acétophénone dans 20 ml d'acide acétique. Le mélange est chauffé à reflux pendant 3 h. Le solvant est éliminé et le résidu jaune huileux est dissous dans 50 ml d'éthanol. Après élimimation du solvant, le résidu cristallise dans du méthanol.

The mark [2] stands for this setting: treatment 4 mg/kg (IP) 4 h after Triton.
The mark [3] stands for this setting: treatment 2 mg/kg (IP) 4 h after Triton.

On to `C=C(CN1CCN(C)CC1)C(=O)c1ccccc1` [Exemple 1, Dichlorhydratede 2-(4-méthyl-1-pipérazinylméthyl)acrylophénone], for which, in the data set with rat (setting [2]), the “Diminution(%)sous l'influence du traitement cholestérolémie” value is reported as 57,5% and the “Diminution(%)sous l'influence du traitement triglycéridémie” value amounted to 47%. For the same compound, the IC50 in the data set on plaquettes was found to be 1.32 µM. Moreover, in data set [1] (acetone), the “solubilité dans l'acétone” value is listed as “pratiquement insoluble dans l'acétone”. Also, the “solubilité dans l'alcool” value in data set [1] (alcohol) is listed as “peu soluble dans l'alcool”. Besides, the “solubilité dans l'eau” value in data set [1] (water) is on record as “très soluble dans l'eau”.
For the compound `C=C(CN1CCOCC1)C(=O)c1ccccc1` [chlorhydratede 2-(1-morpholinométhyl)-acrylophénone], in the data set with rat (setting [2]), the “Diminution(%)sous l'influence du traitement cholestérolémie” value was 51,0% and the “Diminution(%)sous l'influence du traitement triglycéridémie” value is 44,5%. Besides, in the data set with plaquettes, the IC50 stood at 1.94 µM.
As to `C=C(CN(C)C)C(=O)c1ccccc1` [chlorhydratede 2-(N,N-diméthylaminométhyl)-acrylophénone], in the data set on rat (setting [3]), the “Diminution(%)sous l'influence du traitement cholestérolémie” value was found to be 48% and the “Diminution(%)sous l'influence du traitement triglycéridémie” value is 36,5%. Also, the IC50 in the data set with plaquettes worked out at 1.13 µM.
